Data from patent US20110263423A1, “Plant Health Composition” (BASF SE, priority 2008, published 2011).

What was measured:
Assay type in all cases: in vivo
[1] = system: spring wheat (cv. Passat); experiment: Spring wheat pot trial, moderate drought stress (Example 3)
Experimental: Spring wheat (cv. Passat) was cultivated in Mitcherlich pots as described above in example 1. The experiment was conducted with 6 replications in a vegetation hall. Experiments were carried out under semi controlled conditions at very low disease-pressure with insignificant infection rates, protected from any undesired rain or water impact. The water consumption of each pot was calculated on the basis of the recorded measurements of the weight of the pots prior to each irrigation event up to the defined set point. Pots without crop coverage were used to estimate the evaporation of the soil.
Nitrogen fertilizer (totally 1.75 g N/pot) was added in equal amounts at 3 stages to allow optimal growth conditions throughout the life cycle. All plants/pots were grown at optimal water supply by watering 2-3 times a day to 60% of the water holding capacity of the soil until growth stage 55 (BBCH). Then, pots were only watered to 30% of the maximum water holding capacity of the soil to apply moderate drought stress. Compound Ia (62.5 g/l, 2 L in 400 L water/ha) was applied at growth stage 39/49 (BBCH scale), which is an EC formulation of comound Ia. Control plants were not treated.
At maturity of the plants the grain was harvested and uniformly dried to 5% moisture content. Number of grains per pot was counted after harvest. Thousand Grain Weight (TGW), as an indicator of plant yield, was calculated based on grain yield per pot and number of grains per pot. Transpiration was calculated on the basis of the amount of water added to the respective pots and the estimated soil evaporation. Water use efficiency, as an indicator of drought stress tolerance of a plant, was calculated based on the respective transpiration per pot.

Maize (Dekalb RX940) = experiment: Maize field trial, Dinuba 2008 (Example 5)
Experimental: Maize was grown in 2008 in a field trial at the BASF experimental station in Dinuba, 10181 Avenue 416, Calif., U.S.A. The variety Dekalb RX940 was planted at a seeding rate of 10 plants/m^2. Four rows per plot were planted with a row spacing of 0.75 m. The trial was setup as a randomized bloc design with 5 replications, each. Plot size was 43 m^2. Compound Ia was used as an EC formulation (62.5 g a.i./L) with a dose rate of 0.8 L per hectar (50 g a.i./ha). The formulation was applied in a total spray volume of 400 L/ha. Compound Ia was sprayed at a growth stage 51/55 (BBCH) with a tractor mounted spray boom with VS11003 spray nozzles at 3 bar spray pressure.
(§1) No disease symptoms were visible at the application time and no symptoms were detected at later stages.
Green leaf area, as an indicator of plant vigor, was assessed beginning of ripening by estimating the green leaf area in 10 randomly chosen plants per plot.
At maturity the grain was harvested and the grain yield per plot, as an indicator of plant yield, was determined (kg/plot). Finally, the grain yield per hectare, as an aditional indicator of plant yield, was calculated (dt/ha). Furthermore, the Thousand Grain Weight (TGW) was determined in the second trial (Crow C300 42).

[2] = system: Soybeans (Pioneer 93-M-11, Crow C300 42); experiment: Soybean field trials, Dinuba 2008 (Example 4)
Experimental: Soybeans were grown in 2008 in two field trials at the BASF experimental station in Dinuba, 10181 Avenue 416, Calif., U.S.A. In one trial, the variety Pioneer 93-M-11 was planted at a seeding rate of 88 kg/ha. In a second trial, the variety Crow C300 42 was planted at the same seeding rate. Both trials were setup as randomized complete block design with 5 replications, each. Plot size was 42 m^2. Compound la was used as an EC formulation (62.5 g a.i./L) with a dose rate of 0.64 L per hectar (40 g a.i./ha). The formulation was applied in a total spray volume of 300 L/ha. Compound Ia was sprayed at growth stage 34/37 (BBCH) with a tractor mounted spray boom with VS11003 spray nozzles at 3 bar spray pressure.
as §1
Green leaf area, as an indicator of plant vigor, was assessed in the second trial (variety Crow C300 42) when all pods had reached their final size by estimating the green leaf area in 10 randomly chosen plants per plot. At maturity the grain was harvested and the grain yield per plot, as an indicator of plant yield, was determined (kg/plot). Finally, the grain yield per hectare was calculated (dt/ha). Thousand Grain Weight (TGW) was determined in the second trial (Crow C300 42).

Soybeans (M-SOY 6001 RR) = experiment: Soybean field trial Brazil, ternary mixture, Colby synergism (Example 7); settings: soybean M-SOY 6001 RR, Ia 40, epoxiconazol 40, pyraclostrobin 65 g a.i./ha
Experimental: Soybeans were grown in 2008 at the CEDUP “Caetano Vieira da Costa” in Sao José do Cerrito, Santa […], Brazil. The variety M-SOY 6001 RR was planted in 2007, 11 Nov., at a seeding rate of 300.000 plants per ha. Row spacing was 50 cm. The trial was setup as a randomized bloc design with 4 replications. Plot size was 12.5 m^2. Fungicide treatments were applied at BBCH GS 70-79 (pods reached 15-20 mm of final […]). The fungicides were used as formulations. Compound Ia was applied as an EC formulation (62.5 g/L-EC) at 0.64 L/ha (40 g ai/ha). […] The adjuvant DASH HC was added to the spray tank with 0.3% (v/v). Finally, compound Ia was applied in a mixture together with epoxiconazol and pyraclostrobin forming a ternary mixture according to the present invention, using a coformulation of all three compounds (50 g/L of compound Ia+50 g/L of epoxiconazol+81 g/L of pyraclostrobin-EC). This formulation was sprayed at a rate of 0.8 […] compound […] epoxiconazol+65 g a.i./ha pyraclostrobin). The formulations were diluted in water. Total spray volume for foliar application was 150 L/ha. The trial was conducted under low disease pressure. […] Plots were harvested at maturity of the soybean crop and the yield (thousand grain weight) was determined (table 11). The efficacy in yield increase was calculated as % increase of the Thousand Grain Weight (TGW) by the treatments compared to the untreated control. […]

[3] = moderate drought stress, 2 L/ha EC at BBCH 39/49
[4] = 40 g a.i./ha, listed as compound Ia

Cn1cc(C(=O)Nc2ccccc2-c2cc(F)c(F)c(F)c2)c(C(F)F)n1 [Compound Ia, N-(3′,4′,5′-trifluorobiphenyl-2-yl)-3-difluoromethyl-1-methyl-1H-pyrazole-4-carboxamide]
Thousand Grain Weight, change vs untreated control ([1]; moderate drought stress): (+4%) | Transpiration, change vs untreated control ([1]; moderate drought stress): (−4%) | Water use efficiency, change vs untreated control ([1]; moderate drought stress): (+3%) | Transpiration ([1]; moderate drought stress (30% water holding capacity from BBCH 55), 2 L/ha EC at BBCH 39/49): 26.5 L water/pot | Thousand Grain Weight [1, 3]: 31.2 g | Water use efficiency [1, 3]: 2.02 g grain/L water | Grain yield, increase as % of untreated (Maize (Dekalb RX940); 50 g a.i./ha): (+4.5%) | TGW, increase as % of untreated (Maize (Dekalb RX940); 50 g a.i./ha): (+3.3%) | Grain yield (Maize (Dekalb RX940); 50 g a.i./ha at BBCH 51/55): 154.7 dt/ha | TGW (Maize (Dekalb RX940); 50 g a.i./ha at BBCH 51/55): 317.0 g | % Green leaf area (Maize (Dekalb RX940); 50 g a.i./ha at BBCH 51/55, beginning of ripening): 49.0% | Grain yield, increase as % of untreated (Maize (Dekalb RX940); 50 g a.i./ha, listed as compound Ia): 4.5% | Soybean grain yield (Trial 1) Pioneer 93M11, increase as % of untreated ([2]; 40 g a.i./ha): (+11.6%) | Soybean grain yield (Trial 2) Crow C300 42, increase as % of untreated ([2]; 40 g a.i./ha): (+6.5%) | Soybean grain yield, Mean of two trials, increase as % of untreated ([2]; 40 g a.i./ha): (+8.5%) | Soybean grain yield (Trial 1) Pioneer 93M11 ([2]; 40 g a.i./ha at BBCH 34/37): 45.5 dt/ha | Soybean grain yield (Trial 2) Crow C300 42 ([2]; 40 g a.i./ha at BBCH 34/37): 67.1 dt/ha | Soybean grain yield, Mean of two trials ([2]; 40 g a.i./ha at BBCH 34/37): 56.3 dt/ha | Soybean grain yield (Trial 1) Pioneer 93M11, increase as % of untreated [2, 4]: ~12% | Soybean grain yield, Mean of two trials, increase as % of untreated [2, 4]: 8.5% | TGW ([2]; soybean Crow C300 42 (second trial), 40 g a.i./ha at BBCH 34/37): 177.0 g | % Green leaf area ([2]; soybean Crow C300 42 (second trial), 40 g a.i./ha at BBCH 34/37, pods at final size): 88.4% | TGW, increase as % of untreated ([2]; soybean Crow C300 42, 40 g a.i./ha): (+5.7%) | Observed efficacy (% increase of TGW vs untreated control) (Soybeans (M-SOY 6001 RR)): 0% | TGW (Soybeans (M-SOY 6001 RR); BBCH 70-79): 153 g
